`Oc1ccccc1C=Nc1c(F)cccc1F` showed a solubility (mole fraction) (in 1,2-dichloroethane, 273.15 K) of 0.105, a solubility (mole fraction) (in 1,2-dichloroethane, 278.15 K) of 0.122 and a solubility (mole fraction) (in 1,2-dichloroethane, 283.15 K) of 0.142. The solubility (mole fraction) (in 1,2-dichloroethane, 288.15 K) was 0.164, the solubility (mole fraction) (in 1,2-dichloroethane, 293.15 K) was 0.193 and the solubility (mole fraction) (in 1,2-dichloroethane, 298.15 K) was 0.234. It also gave a solubility (mole fraction) (in 1,2-dichloroethane, 303.15 K) of 0.277, a solubility (mole fraction) (in THF, 273.15 K) of 0.161 and a solubility (mole fraction) (in THF, 278.15 K) of 0.181. It also gave a solubility (mole fraction) (in THF, 283.15 K) of 0.2, a solubility (mole fraction) (in THF, 288.15 K) of 0.23 and a solubility (mole fraction) (in THF, 293.15 K) of 0.258. The solubility (mole fraction) (in THF, 298.15 K) was 0.293, the solubility (mole fraction) (in THF, 303.15 K) was 0.338 and the solubility (mole fraction) (in acetonitrile, 273.15 K) was 0.0134. It also gave a solubility (mole fraction) (in acetonitrile, 278.15 K) of 0.0191, a solubility (mole fraction) (in acetonitrile, 283.15 K) of 0.0272 and a solubility (mole fraction) (in acetonitrile, 288.15 K) of 0.0389. It also gave a solubility (mole fraction) (in acetonitrile, 293.15 K) of 0.0547, a solubility (mole fraction) (in acetonitrile, 298.15 K) of 0.0768 and a solubility (mole fraction) (in acetonitrile, 303.15 K) of 0.106. For the same molecule, the solubility (mole fraction) (in chloroform, 273.15 K) was 0.138, the solubility (mole fraction) (in chloroform, 278.15 K) was 0.154 and the solubility (mole fraction) (in chloroform, 283.15 K) was 0.177. For the same molecule, the solubility (mole fraction) (in chloroform, 288.15 K) was 0.203, the solubility (mole fraction) (in chloroform, 293.15 K) was 0.232 and the solubility (mole fraction) (in chloroform, 298.15 K) was 0.27. For the same molecule, the solubility (mole fraction) (in chloroform, 303.15 K) was 0.313, the solubility (mole fraction) (in dichloromethane, 273.15 K) was 0.122 and the solubility (mole fraction) (in dichloromethane, 278.15 K) was 0.139. It also gave a solubility (mole fraction) (in dichloromethane, 283.15 K) of 0.161, a solubility (mole fraction) (in dichloromethane, 288.15 K) of 0.185 and a solubility (mole fraction) (in dichloromethane, 293.15 K) of 0.218. For the same molecule, the solubility (mole fraction) (in dichloromethane, 298.15 K) was 0.252, the solubility (mole fraction) (in dichloromethane, 303.15 K) was 0.295 and the solubility (mole fraction) (in ethanol, 273.15 K) was 0.00496. For the same molecule, the solubility (mole fraction) (in ethanol, 278.15 K) was 0.00633, the solubility (mole fraction) (in ethanol, 283.15 K) was 0.00819 and the solubility (mole fraction) (in ethanol, 288.15 K) was 0.0103. It also gave a solubility (mole fraction) (in ethanol, 293.15 K) of 0.0128, a solubility (mole fraction) (in ethanol, 298.15 K) of 0.0157 and a solubility (mole fraction) (in ethanol, 303.15 K) of 0.0192. It also gave a solubility (mole fraction) (in ethyl acetate, 273.15 K) of 0.0896, a solubility (mole fraction) (in ethyl acetate, 278.15 K) of 0.104 and a solubility (mole fraction) (in ethyl acetate, 283.15 K) of 0.124. It also gave a solubility (mole fraction) (in ethyl acetate, 288.15 K) of 0.146, a solubility (mole fraction) (in ethyl acetate, 293.15 K) of 0.173 and a solubility (mole fraction) (in ethyl acetate, 298.15 K) of 0.204. It also gave a solubility (mole fraction) (in ethyl acetate, 303.15 K) of 0.248, a solubility (mole fraction) (in isopropanol, 273.15 K) of 0.008 and a solubility (mole fraction) (in isopropanol, 278.15 K) of 0.0095. The solubility (mole fraction) (in isopropanol, 283.15 K) was 0.0114, the solubility (mole fraction) (in isopropanol, 288.15 K) was 0.0136 and the solubility (mole fraction) (in isopropanol, 293.15 K) was 0.0164. It also gave a solubility (mole fraction) (in isopropanol, 298.15 K) of 0.0195, a solubility (mole fraction) (in isopropanol, 303.15 K) of 0.0231 and a solubility (mole fraction) (in methanol, 273.15 K) of 0.00299. For the same molecule, the solubility (mole fraction) (in methanol, 278.15 K) was 0.00392, the solubility (mole fraction) (in methanol, 283.15 K) was 0.00512 and the solubility (mole fraction) (in methanol, 288.15 K) was 0.00667. It also gave a solubility (mole fraction) (in methanol, 293.15 K) of 0.00873, a solubility (mole fraction) (in methanol, 298.15 K) of 0.0111 and a solubility (mole fraction) (in methanol, 303.15 K) of 0.0141. For the same molecule, the solubility (mole fraction) (in n-propanol, 273.15 K) was 0.00636, the solubility (mole fraction) (in n-propanol, 278.15 K) was 0.00779 and the solubility (mole fraction) (in n-propanol, 283.15 K) was 0.00958. It also gave a solubility (mole fraction) (in n-propanol, 288.15 K) of 0.0118, a solubility (mole fraction) (in n-propanol, 293.15 K) of 0.0146 and a solubility (mole fraction) (in n-propanol, 298.15 K) of 0.0177. It also gave a solubility (mole fraction) (in n-propanol, 303.15 K) of 0.0212, a solubility (mole fraction) (in toluene, 273.15 K) of 0.0871 and a solubility (mole fraction) (in toluene, 278.15 K) of 0.105. The solubility (mole fraction) (in toluene, 283.15 K) was 0.126, the solubility (mole fraction) (in toluene, 288.15 K) was 0.149 and the solubility (mole fraction) (in toluene, 293.15 K) was 0.176. It also gave a solubility (mole fraction) (in toluene, 298.15 K) of 0.213 and a solubility (mole fraction) (in toluene, 303.15 K) of 0.251.

From BigSolDB 2.1
